Here are results for 1 compound from patent US11529350B2, “Tyrosine kinase non-receptor 1 (TNK1) inhibitors and uses thereof” (Sumitomo Pharma Oncology, Inc., priority 2019, dated 2022).

In one data set the test system is L540 xenografts. Kind of data set: In vivo efficacy study in subcutaneous L540 Hodgkin's lymphoma CDX model. The conditions noted are these: for tumor growth inhibition: oral gavage daily for 21 days. On the procedure:
An efficacy study was performed using Example No. 13 in a L540 CDX mouse model. Animals were NOD-SCID (#394) female mice 6-8 weeks of age from Charles River Laboratories (CRL). Example No. 13 was formulated weekly using Tween 80:Ethanol:PEG400:Water (2:10:30:58 v/v) as a vehicle. There were four treatment groups (n=10, 40 animals in total): a vehicle/control group, a group treated with 10 mg/kg Example No. 13, a group treated with 25 mg/kg Example No. 13 and a group treated with 50 mg/kg Example No. 13. When the average tumor volume reached 80-120 mm^3, animals were randomized and dosed daily for 21 days via oral gavage, 10 ml/kg dose volume. […] No tissues were collected. IDEXX pathogen test was performed prior to the cell culture; Corynebacterium bovis, Corynebacterium sp. (HAC2), EBV, HCMV, Hepatitis B, Hepatitis C, HIV1, HIV2, HPV16, HPV18, HTLV1, HTLV2, LDEV, and Mycoplasma sp. were tested, and all results were negative. Tumor volume measurements are provided as mean absolute tumor volume +/−SEM.

Data set [1] has as its system TNK1 and STAT5 phosphorylation in L540 tumor tissue. Nature of the data set: In vivo single dose PD study, L540 xenograft, Western blot. Set-up: species or system mouse. The following applies: L540 tumor samples, 50 mg/kg. On the procedure:
The objective of this study was to assess in vivo pharmacodynamic activity of Example No. 13 in a subcutaneous xenograft model of Hodgkin's lymphoma in female NOD SCID mice, aged 6-8 weeks. There were 4 groups (and a total of 84 mice): Example No. 13 at 50 mg/kg, 25 mg/kg, or 10 mg/kg (n=27 mice for each dose), and vehicle (n=3 mice). When the average tumor volume reached 300 mm^3, animals were randomized and dosed once p.o. at a 10 mL/kg dose volume. Blood and tumors were collected at nine different time points.
Example No. 13 was formulated in Tween 80 (0.2 mL), ethanol (1 mL), PEG400 (3 mL), and water (5.8 mL).
In this study, protein expression was analyzed by Western blotting method. Tissue samples were acquired as part of a single dose PK/PD study. Equal amounts of tumor were placed into a bead tube, lysis buffer (RIPA buffer (Sigma No. 0278), Halt CocktaiL (ThermoFisher No. 78440), EDTA (ThermoFisher No. 1861274), PhosSTOP (Sigma No. 04906845001), cOmplete (Sigma No. 11697498001) and Inhibitor Cocktail 3 (Sigma No. P0044-1ML)) was added, and samples were homogenized using bead homogenizer (2×20 s at 4.5 m/s (Fisherbrand Bead Mill 24 Homogenizer, Fisher Scientific)). […]
Protein concentration was determined using BCA kit (Invitrogen No. 23225). Equal amounts of protein were pooled from each treatment group, and concentration was measured again in the pooled samples. […]
On the technique in general: Immunoblotting shows a protein as a band on a membrane.

Another data set concerns A549 cells. Kind of data set: Combination with bortezomib, A549 cell confluency (Incucyte). The data set is classed as cell-based. The following applies: Example No. 13 10 nM + Bortezomib 1 nM, over 200 hours. On the procedure: A549 cells were seeded in log phase (e.g., at 40-60% confluency) in a well plate. Drug treatments were: no drug treatment, DMSO, bortezomib at 50 nM, 10 nM, 5 nM, 2 nM or 1 nM, Example No. 13 at 10 nM, and bortezomib 50 nM, 10 nM, 5 nM, 2 nM or 1 nM combined with Example No. 13 at 10 nM. The DMSO concentrations were kept constant (including DMSO control) to control for any confounding DMSO toxicity.
Drug addition protocol: On day 1, cells were seeded at 60,000 cells/well, and incubated for 24 hours to allow adherence. On day 2, media was aspirated and replaced with 500 μl of the drug media preparations described below in correlating wells. The plates were placed in Incucyte for 7-14 days, and cell confluency was measured every 2 hours. […]

Take `COc1cc(N2CCN(C)CC2)c(Cl)cc1Nc1ncc(Cl)c(Nc2cccnc2N2CCCC2=O)n1` [Example No. 13, 1-(3-((5-chloro-2-((5-chloro-2-methoxy-4-(4-methylpiperazin-1-yl)phenyl)amino)pyrimidin-4-yl)amino)pyridin-2-yl)pyrrolidin-2-one]: the tumor growth inhibition in the data set with L540 xenografts (10 mg/kg, at Day 21) is recorded as 35.17%; with L540 xenografts (25 mg/kg, at Day 31), 74.20%; in the data set on L540 xenografts (50 mg/kg, at Day 31), 86.5%. Further, in the data set on L540 xenografts (50 mg/kg), the body weight loss result is “moderate”. Moreover, the “animals found dead on Day 7, possibly due to drug toxicity” value in the data set with L540 xenografts (50 mg/kg group (n=10)) is reported as “Two”. For the same compound, the “continued tumor growth inhibition post-dosing” value in the data set on L540 xenografts (25 and 50 mg/kg, dosing stopped on day 21) was “up to 10 days”. The “earliest time at which inhibition of STAT5 phosphorylation was observed after dosing” value in data set [1] was 15 to 30 min. Further, the “cell growth inhibition, combination” value with A549 cells is given as “approximately 50%”.
